PubChem BioAssay (NCI)
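All cell lines were grown in 96-well plates and treated with compound for 48 hours. TGI: concentration producing complete growth inhibition.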

Assays:
Assay in all cases: NCI anticancer screen, dose series, 48 h
[1] = tested on: M14 melanoma
[2] = tested on: ACHN renal
[3] = tested on: SNB-75 CNS
[4] = tested on: OVCAR-8 ovarian
[5] = tested on: SK-MEL-5 melanoma
[6] = tested on: SF-295 CNS
[7] = tested on: SN12C renal
[8] = tested on: DMS 114 small cell lung
[9] = tested on: SW-620 colon
[10] = tested on: HCT-15 colon
[11] = tested on: NCI-H23 lung
[12] = tested on: RPMI-8226 leukemia
[13] = tested on: RXF 393 renal
[14] = tested on: SNB-78 CNS
[15] = tested on: 786-0 renal
[16] = tested on: LXFL 529 NSCLC
[17] = tested on: SF-539 CNS
[18] = tested on: EKVX NSCLC
[19] = tested on: HOP-18 NSCLC
[20] = tested on: HL-60(TB) leukemia
[21] = tested on: IGROV1 ovarian
[22] = tested on: SF-268 CNS
[23] = tested on: OVCAR-3 ovarian
[24] = tested on: SK-OV-3 ovarian
[25] = tested on: UO-31 renal
[26] = tested on: NCI-H522 lung
[27] = tested on: HT29 colon
[28] = tested on: U251 CNS
[29] = tested on: M19-MEL melanoma
[30] = tested on: KM20L2 colon
[31] = tested on: TK-10 renal
[32] = tested on: HOP-62 NSCLC
[33] = tested on: K-562 leukemia
[34] = tested on: SR leukemia
[35] = tested on: XF 498 CNS
[36] = tested on: UACC-62 melanoma
[37] = tested on: CAKI-1 renal
[38] = tested on: HCC-2998 colon
[39] = tested on: CCRF-CEM leukemia
[40] = tested on: SK-MEL-2 melanoma
[41] = tested on: A549 NSCLC
[42] = tested on: COLO 205 colon
[43] = tested on: HCT-116 colon
[44] = tested on: DMS 273 small cell lung
[45] = tested on: NCI-H460 lung
[46] = tested on: OVCAR-4 ovarian
[47] = tested on: OVCAR-5 ovarian
[48] = tested on: KM12 colon
[49] = tested on: NCI-H226 lung
[50] = tested on: MOLT-4 leukemia
[51] = tested on: SNB-19 CNS
[52] = tested on: SK-MEL-28 melanoma
[53] = tested on: MALME-3M melanoma
[54] = tested on: A498 renal
[55] = tested on: HOP-92 NSCLC
[56] = tested on: UACC-257 melanoma
[57] = tested on: DLD-1 colon
[58] = tested on: LOX IMVI melanoma

O=C(/C=C/c1cccc([N+](=O)[O-])c1)c1cccnc1
TGI [1]: 19.6 µM | TGI [2]: > 100 µM | TGI [3]: > 91.5 µM | TGI [4]: > 100 µM | TGI [5]: 22.3 µM | TGI [6]: > 100 µM | TGI [7]: > 62.9 µM | TGI [8]: 52.9 µM | TGI [9]: 37.5 µM | TGI [10]: > 100 µM | TGI [11]: 44.8 µM | TGI [12]: 44.8 µM | TGI [13]: 34.4 µM | TGI [14]: > 94.2 µM | TGI [15]: 30.5 µM | TGI [16]: 43 µM | TGI [17]: 48.3 µM | TGI [18]: > 100 µM | TGI [19]: > 31.2 µM | TGI [20]: 48.3 µM | TGI [21]: 70.4 µM | TGI [22]: > 86.4 µM | TGI [23]: 68.8 µM | TGI [24]: > 100 µM | TGI [25]: > 70.7 µM | TGI [26]: 25.3 µM | TGI [27]: 42.9 µM | TGI [28]: 56.1 µM | TGI [29]: > 67.9 µM | TGI [30]: > 67.8 µM | TGI [31]: > 100 µM | TGI [32]: > 100 µM | TGI [33]: > 78.5 µM | TGI [34]: 62.5 µM | TGI [35]: > 81.1 µM | TGI [36]: > 82.4 µM | TGI [37]: > 90.8 µM | TGI [38]: > 66.1 µM | TGI [39]: 59.2 µM | TGI [40]: > 100 µM | TGI [41]: > 100 µM | TGI [42]: > 87.1 µM | TGI [43]: 33.3 µM | TGI [44]: 69.6 µM | TGI [45]: > 100 µM | TGI [46]: > 100 µM | TGI [47]: > 100 µM | TGI [48]: 43.3 µM | TGI [49]: > 100 µM | TGI [50]: 63.5 µM | TGI [51]: > 94.7 µM | TGI [52]: 60.8 µM | TGI [53]: > 100 µM | TGI [54]: > 62.9 µM | TGI [55]: > 100 µM | TGI [56]: 97.7 µM | TGI [57]: 52.2 µM | TGI [58]: 40.1 µM
